Data taken from patent EP0400227A1, “Natriuretic peptides” (Acticor, Inc., priority 1989, dated 1990).
Ends that are not written are not given here.

Test system: rats
Assay: Natriuretic and diuretic effect of intravenous bolus injection in anesthetized rats
Assay type: in vivo, male Sprague-Dawley or Long-Evans rats
Settings: 30 to 60 minutes after minus 30 to 0 minutes before injection, mean ± SEM
Procedure: Diuretic and natriuretic activity of the peptides of this invention is assayed in male rats of the Sprague-Dawley or Long-Evans strains. Peptide or vehicle (for control purposes) is administered by intravenous bolus injection or by continuous infusion into one […] of animals anesthetized for the duration of the experiment, or by intramuscular or subcutaneous injection into animals only briefly anesthetized with ether and subsequently conscious and freely moving until completion of the experiment. Timed urine samples are collected for determination of volume and measurement of sodium and potassium concentration by flame photometry. Details of each method are given in Examples II to IV below.
The natriuretic and diuretic effect of intravenous bolus injection of peptides F15R, G13R and E19R was tested in male Sprague-Dawley or Long-Evans rats weighing 300-400 g. The animals were given Inactin®, 120 mg per kg body weight i.p. under light ether anesthesia. Following placement of a tracheal cannula, the right femoral vein was catheterized for infusion of 5% bovine serum albumin at a dose of 0.4% of body weight and at a rate of 6.0 ml/hour. Subsequently, normal saline was infused for the duration of the experiment at a rate of 2.0 ml/hour. The bladder was exposed through an abdominal incision and catheterized for urine collection. Serial 15-minute urine collections in preweighed vials were begun after a recovery period of 45 minutes. After collection of four control samples, the peptide in 0.1 ml of vehicle was injected into the femoral vein over a period of 1 minute and 6 to 10 further urine samples were collected. Urine volume was determined by weighing and urine sodium and potassium were assayed by flame photometry. All peptides produced natriuresis and diuresis reaching peak levels usually between 30 and 60 minutes after injection. The difference between urine volume and sodium excretion observed from 30 to 60 minutes after and 30 to 0 minutes before peptide administration was calculated for each rat as a measure of activity.

[1] = i.v. 0.100 nmol (0.10 nmol for G13R)

Sequence | Change in Sodium Excretion (i.v. 0.025 nmol) | Change in Urine Volume (i.v. 0.025 nmol) | Change in Sodium Excretion [1] | Change in Urine Volume [1] | Change in Sodium Excretion (i.v. 1.00 nmol) | Change in Urine Volume (i.v. 1.00 nmol)
ETPMFPGNGDEQPLTENP [E19R] | 6.50 ± 3.60 µeq/30 minutes | 89.0 ± 43.6 µl/30 minutes | 12.07 ± 5.08 µeq/30 minutes | 104.2 ± 58.0 µl/30 minutes |  | 
GNGDEQPLTPNPR [G13R] |  |  | 8.39 ± 4.41 µeq/30 minutes | 80.0 ± 29.2 µl/30 minutes | 12.48 ± 6.22 µeq/30 minutes | 62.0 ± 17.2 µl/30 minutes
